Test results as given in PubChem BioAssay AID250 (DTP/NCI, 2004).
Where “and” joins values, the source holds several entries; their conditions need not be identical. Equal entries are not always repeated. Toxic doses and inconclusive results are not listed. Rule for the calls: active = survival T/C of 150% or more; inactive = T/C below 125% in these data.

Tested on: BDF1 mice, L1210 leukemia sc, survival T/C
Experiment: NCI In Vivo Anticancer Drug Screen. Data for tumor model L1210 Leukemia (subcutaneous) in B6D2F1 (BDF1) mice
Details: endpoint: median survival time, higher = longer survival
Summary of the method: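 Mice carrying transplanted tumors received test compounds, and survival or tumor size was measured. Values are the treated-group measurement (T) divided by that of the vehicle-treated control group (C).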

Measured: T/C

CC(CN1CC(=O)NC(=O)C1)N1CC(=O)NC(=O)C1 (stereo unspecified)
inactive: dose: 3.12 mg/kg/injection, schedule: Q03HX024 (ip), vehicle: other 115 % of control | dose: 3.12 mg/kg/injection, schedule: Q03HX024 (ip), vehicle: steriod suspending solution 111 % of control | dose: 12.5 mg/kg/injection, schedule: Q01DX009 (sc), vehicle: steriod suspending solution 105 % of control | dose: 16.0 mg/kg/injection, schedule: Q01DX009 (ip), vehicle: Klucel (hydroxypropylcellulose) (HPC) 109 % of control and 124 % of control | dose: 16.0 mg/kg/injection, schedule: Q01DX009 (ip), vehicle: other 119 % of control | dose: 25.0 mg/kg/injection, schedule: Q01DX009 (sc), vehicle: steriod suspending solution 120 % of control | dose: 50.0 mg/kg/injection, schedule: Q04DX003 (sc), vehicle: Klucel (hydroxypropylcellulose) (HPC) 110 % of control and 112 % of control | dose: 80.0 mg/kg/injection, schedule: Q03HX024 (sc), vehicle: Klucel (hydroxypropylcellulose) (HPC) 118 % of control and 120 % of control | dose: 100.0 mg/kg/injection, schedule: Q01DX009 (ip), vehicle: steriod suspending solution 110 % of control | dose: 100.0 mg/kg/injection, schedule: Q04DX003 (ip), vehicle: other 117 % of control | dose: 100.0 mg/kg/injection, schedule: Q04DX003 (ip), vehicle: steriod suspending solution 120 % of control | dose: 100.0 mg/kg/injection, schedule: Q04DX003 (sc), vehicle: steriod suspending solution 100 % of control and 120 % of control | dose: 108.0 mg/kg/injection, schedule: Q04DX003 (sc), vehicle: Klucel (hydroxypropylcellulose) (HPC) 118 % of control and 122 % of control | dose: 200.0 mg/kg/injection, schedule: Q01DX009 (ip), vehicle: steriod suspending solution 90 % of control | dose: 200.0 mg/kg/injection, schedule: Q01DX009 (sc), vehicle: steriod suspending solution 90 % of control | dose: 200.0 mg/kg/injection, schedule: Q04DX003 (sc), vehicle: steriod suspending solution 100 % of control | dose: 256.0 mg/kg/injection, schedule: Q01DX009 (ip), vehicle: Klucel (hydroxypropylcellulose) (HPC) 116 % of control and 121 % of control | dose: 256.0 mg/kg/injection, schedule: Q01DX009 (ip), vehicle: other 105 % of control | dose: 300.0 mg/kg/injection, schedule: Q01DX009 (sc), vehicle: Klucel (hydroxypropylcellulose) (HPC) 120 % of control | dose: 500.0 mg/kg/injection, schedule: Q01DX009 (sc), vehicle: Klucel (hydroxypropylcellulose) (HPC) 100 % of control | dose: 512.0 mg/kg/injection, schedule: Q01DX009 (ip), vehicle: Klucel (hydroxypropylcellulose) (HPC) 107 % of control | dose: 800.0 mg/kg/injection, schedule: Q04DX003 (ip), vehicle: Klucel (hydroxypropylcellulose) (HPC) 112 % of control | dose: 800.0 mg/kg/injection, schedule: Q04DX003 (ip), vehicle: other 111 % of control and 118 % of control | dose: 800.0 mg/kg/injection, schedule: Q04DX003 (ip), vehicle: steriod suspending solution 100 % of control and 110 % of control and 120 % of control | dose: 800.0 mg/kg/injection, schedule: Q04DX003 (sc), vehicle: steriod suspending solution 110 % of control and 120 % of control | dose: 833.0 mg/kg/injection, schedule: Q04DX003 (sc), vehicle: Klucel (hydroxypropylcellulose) (HPC) 107 % of control and 111 % of control | dose: 1388.0 mg/kg/injection, schedule: Q04DX003 (sc), vehicle: Klucel (hydroxypropylcellulose) (HPC) 100 % of control
active: dose: 6.25 mg/kg/injection, schedule: Q03HX024 (ip), vehicle: other 156 % of control | dose: 6.25 mg/kg/injection, schedule: Q03HX024 (ip), vehicle: steriod suspending solution 155 % of control | dose: 8.4 mg/kg/injection, schedule: Q03HX024 (sc), vehicle: Klucel (hydroxypropylcellulose) (HPC) 150 % of control | dose: 10.0 mg/kg/injection, schedule: Q03HX024 (sc), vehicle: Klucel (hydroxypropylcellulose) (HPC) 184 % of control and 185 % of control | dose: 12.5 mg/kg/injection, schedule: Q03HX024 (ip), vehicle: other 191 % of control | dose: 12.5 mg/kg/injection, schedule: Q03HX024 (ip), vehicle: steriod suspending solution 161 % of control | dose: 14.0 mg/kg/injection, schedule: Q03HX024 (sc), vehicle: Klucel (hydroxypropylcellulose) (HPC) 180 % of control | dose: 20.0 mg/kg/injection, schedule: Q03HX024 (sc), vehicle: Klucel (hydroxypropylcellulose) (HPC) 194 % of control and 195 % of control | dose: 23.0 mg/kg/injection, schedule: Q03HX024 (sc), vehicle: Klucel (hydroxypropylcellulose) (HPC) 200 % of control | dose: 25.0 mg/kg/injection, schedule: Q03HX024 (ip), vehicle: other 160 % of control | dose: 25.0 mg/kg/injection, schedule: Q03HX024 (ip), vehicle: steriod suspending solution 155 % of control | dose: 39.0 mg/kg/injection, schedule: Q03HX024 (sc), vehicle: Klucel (hydroxypropylcellulose) (HPC) 205 % of control | dose: 40.0 mg/kg/injection, schedule: Q03HX024 (sc), vehicle: Klucel (hydroxypropylcellulose) (HPC) 199 % of control and 200 % of control | dose: 50.0 mg/kg/injection, schedule: Q01DX009 (ip), vehicle: steriod suspending solution 150 % of control | dose: 50.0 mg/kg/injection, schedule: Q01DX009 (sc), vehicle: steriod suspending solution 155 % of control | dose: 64.0 mg/kg/injection, schedule: Q01DX009 (ip), vehicle: Klucel (hydroxypropylcellulose) (HPC) 154 % of control | dose: 65.0 mg/kg/injection, schedule: Q01DX009 (sc), vehicle: Klucel (hydroxypropylcellulose) (HPC) 170 % of control | dose: 65.0 mg/kg/injection, schedule: Q03HX024 (sc), vehicle: Klucel (hydroxypropylcellulose) (HPC) 205 % of control | dose: 100.0 mg/kg/injection, schedule: Q01DX009 (sc), vehicle: steriod suspending solution 150 % of control and 175 % of control | dose: 108.0 mg/kg/injection, schedule: Q01DX009 (sc), vehicle: Klucel (hydroxypropylcellulose) (HPC) 160 % of control | dose: 200.0 mg/kg/injection, schedule: Q04DX003 (ip), vehicle: Klucel (hydroxypropylcellulose) (HPC) 150 % of control | dose: 200.0 mg/kg/injection, schedule: Q04DX003 (ip), vehicle: other 175 % of control | dose: 200.0 mg/kg/injection, schedule: Q04DX003 (ip), vehicle: steriod suspending solution 150 % of control and 175 % of control | dose: 300.0 mg/kg/injection, schedule: Q04DX003 (sc), vehicle: Klucel (hydroxypropylcellulose) (HPC) 160 % of control and 169 % of control and 177 % of control | dose: 400.0 mg/kg/injection, schedule: Q04DX003 (ip), vehicle: Klucel (hydroxypropylcellulose) (HPC) 206 % of control | dose: 400.0 mg/kg/injection, schedule: Q04DX003 (ip), vehicle: other 156 % of control and 207 % of control | dose: 400.0 mg/kg/injection, schedule: Q04DX003 (ip), vehicle: steriod suspending solution 155 % of control and 185 % of control and 205 % of control | dose: 833.0 mg/kg/injection, schedule: Q04DX003 (oral), vehicle: Klucel (hydroxypropylcellulose) (HPC) 161 % of control and 168 % of control | dose: 840.0 mg/kg/injection, schedule: Q04DX003 (oral), vehicle: Klucel (hydroxypropylcellulose) (HPC) 186 % of control and 188 % of control
